Results: PubChem BioAssay (NCI)
Where “and” joins values, the source holds several entries; their conditions need not be identical. Equal entries are not always repeated.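 Five compound concentrations were applied to cells in 96-well plates for 48 hours; endpoints were derived by simple linear interpolation of the resulting dose-response curve. GI50: concentration for 50% inhibition of growth. TGI: total growth inhibition.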

Key:
Assay in all cases: growth of human tumour cells (NCI), 48 h
[1] = test system: UACC-62 melanoma
[2] = test system: ACHN renal
[3] = test system: HCT-116 colon
[4] = test system: 786-0 renal
[5] = test system: PC-3 prostate
[6] = test system: TK-10 renal
[7] = test system: CAKI-1 renal
[8] = test system: NCI-H522 lung
[9] = test system: M14 melanoma
[10] = test system: A549 NSCLC

| SMILES | GI50 [1] | TGI [1] | GI50 [2] | TGI [2] [µM] | GI50 [3] | TGI [3] [µM] | GI50 [4] | TGI [4] | GI50 [5] [µM] | TGI [5] [µM] | GI50 [6] | TGI [6] | GI50 [7] | TGI [7] [µM] | GI50 [8] [µM] | TGI [8] [µM] | GI50 [9] [µM] | TGI [9] [µM] | GI50 [10] | TGI [10] [µM] |
| --- | --- | --- | --- | --- | --- | --- | --- | --- | --- | --- | --- | --- | --- | --- | --- | --- | --- | --- | --- | --- |
| CCC(=O)Nc1ccc2c(c1)CN1C(=O)c3ccccc3C1=N2 | > 100 µM | > 100 µM | > 100 µM | > 100 | > 100 µM | > 100 | > 100 µM | > 100 µM | > 100 | > 100 | > 100 µM | > 100 µM | > 100 µM | > 100 | > 100 | > 100 | > 100 | > 100 | > 100 µM | > 100 |
| CCC[CH2][Sn]([CH2]CCC)([O]C(=O)c1cccc(F)c1F)[O][Sn]([CH2]CCC)([CH2]CCC)[O]C(=O)c1cccc(F)c1F | 0.173 µM | 0.423 µM | 0.214 µM | 0.512 | 0.257 µM | 0.848 | 0.154 µM | 0.344 µM | 0.59 | 1.86 | 0.206 µM | 0.562 µM | 0.116 µM | 0.363 | 0.01 | 0.0697 | 0.274 | 0.891 | 1.78 µM | 3.44 |
| O=C1OC2(c3ccccc31)c1cc(I)c(O)c(I)c1Oc1c2cc(I)c(O)c1I | – | > 100 µM | – | > 100 | – | > 100 | – | > 100 µM | – | > 100 | – | > 100 µM | – | 85 | – | 78.5 | – | > 100 | – | > 100 |
| O=C1NC(=O)[C@H]2C3C=CC([C@@H]12)[C@@H]1C(=O)NC(=O)[C@H]31 | – | > 100 µM | – | > 100 | – | > 100 | – | > 100 µM | – | > 100 | – | > 100 µM | – | > 100 | – | > 100 | – | > 100 | – | > 100 |
| CC1=Cc2cc3[n-]c(cc4nc(cc5[n-]c(cc1n2)c(C)c5CCC(=O)O)C(CCC(=O)O)=C4C)cc3C.[Cu+2] | > 1 µM and 6.04 µM | > 1 µM and 15.8 µM | > 1 µM and 38.8 µM | > 100 | > 1 µM and 33.4 µM | > 100 | > 1 µM and 21.1 µM | > 1 µM and 54.5 µM | 12.9 | 29.5 | > 1 µM and 17.6 µM | > 1 µM and 38.3 µM | > 1 µM and 23.2 µM | > 68.2 | 8.84 | 30.4 | > 79.1 | > 100 | > 1 µM and 70.9 µM | > 100 |
| CC1(C)CC2=NOS3=C2C(=NO3)C1c1ccccn1 (stereo not given) | – | > 100 µM | – | > 100 | – | > 100 | – | > 100 µM | – | > 100 | – | > 100 µM | – | > 100 | – | 90.2 | – | > 100 | – | > 100 |
| COc1ccc(C(=O)c2ccc(OC)cc2OC)cc1 | 5.67 µM | > 100 µM | 6.26 µM | > 100 | 3.24 µM | 34.7 | 5.32 µM | > 100 µM | 4.38 | > 100 | 5.01 µM | > 100 µM | 3.75 µM | > 100 | 1.06 | 4.38 | 2.47 | > 100 | 5.55 µM | > 100 |
| COc1cc2c3c(n(CCCn4ccnc4)c(=O)c2cc1OC)-c1ccccc1C3=O | < 0.0133 µM | 0.0906 µM | < 0.0127 µM | 0.0486 | < 0.0135 µM | 0.153 | < 0.01 µM | 0.194 µM | 0.169 | > 100 | 0.923 µM | 27.5 µM | < 0.01 µM | 0.105 | < 0.01 | 0.0612 | < 0.0171 | 0.116 | < 0.0337 µM | 0.413 |
| O=C1CN2CCC1C/C2=C\c1ccnc2c(Cl)cccc12 (stereo not given) | > 100 µM | > 100 µM | 85.3 µM | > 100 | 45 µM | > 100 | > 100 µM | > 100 µM | 89 | > 100 | > 100 µM | > 100 µM | 21 µM | > 100 | 53.5 | > 100 | > 100 | > 100 | > 100 µM | > 100 |
| O=[N+]([O-])c1ccccc1/C=C/C=C1c2ccccc2-c2ccccc21 | > 100 µM | > 100 µM | > 100 µM | > 100 | > 100 µM | > 100 | > 100 µM | > 100 µM | > 100 | > 100 | > 100 µM | > 100 µM | > 100 µM | > 100 | > 100 | > 100 | > 100 | > 100 | > 100 µM | > 100 |
| C[C@@H](Oc1cc(-c2cnn(C3CC4(CCNCC4)C3)c2)cnc1N)c1c(F)ccc(Cl)c1Cl | 1.55 µM | 3.16 µM | 2 µM | 7.54 | 0.671 µM | 2.65 | 1.63 µM | 3.17 µM | 0.758 | 5.79 | 1.85 µM | 4.7 µM | 2.41 µM | 7.2 | 1.48 | 3.12 | 1.15 | 2.61 | 1.04 µM | 3.63 |
| CCN(CC)CCCC(C)N/C(c1cccc(OC)c1)=c1\c(=O)[nH]n(-c2c3ccccc3nc3ccccc23)c(=O)\c1=C(/NC(C)CCCN(CC)CC)c1cccc(OC)c1 (stereo not given) | 1.69 µM | 3.3 µM | 0.508 µM | 2.35 | 0.491 µM | 3.25 | 1.17 µM | 3.04 µM | 1.2 | 4.97 | 2.58 µM | 7.89 µM | 1.66 µM | 4.17 | 1.55 | 3.21 | 2.01 | 4.1 | 0.992 µM | 4.25 |
| COc1cc(N)ccc1Nc1c2ccccc2nc2ccccc12 | 12.9 µM | 31.2 µM | 3.36 µM | 14.3 | 2.51 µM | 7.63 | 12.7 µM | 27.2 µM | 10.6 | 29.6 | 14.6 µM | 30.2 µM | 7.75 µM | 25.1 | 17.9 | 51.3 | 16.5 | 36.2 | 4.32 µM | 24.9 |
